The record followed here is patent publication US8389500B2, “Fused heterocyclic compounds as ion channel modulators” (Gilead Sciences, Inc., priority 2008, dated 2013).

In one test the target is T1, wild-type human cardiac sodium channel, hNav1.5 (late sodium current) (Homo sapiens, UniProt Q14524).
T1 construct: host or cells: HEK293
T1 sequence (Q14524 whole entry): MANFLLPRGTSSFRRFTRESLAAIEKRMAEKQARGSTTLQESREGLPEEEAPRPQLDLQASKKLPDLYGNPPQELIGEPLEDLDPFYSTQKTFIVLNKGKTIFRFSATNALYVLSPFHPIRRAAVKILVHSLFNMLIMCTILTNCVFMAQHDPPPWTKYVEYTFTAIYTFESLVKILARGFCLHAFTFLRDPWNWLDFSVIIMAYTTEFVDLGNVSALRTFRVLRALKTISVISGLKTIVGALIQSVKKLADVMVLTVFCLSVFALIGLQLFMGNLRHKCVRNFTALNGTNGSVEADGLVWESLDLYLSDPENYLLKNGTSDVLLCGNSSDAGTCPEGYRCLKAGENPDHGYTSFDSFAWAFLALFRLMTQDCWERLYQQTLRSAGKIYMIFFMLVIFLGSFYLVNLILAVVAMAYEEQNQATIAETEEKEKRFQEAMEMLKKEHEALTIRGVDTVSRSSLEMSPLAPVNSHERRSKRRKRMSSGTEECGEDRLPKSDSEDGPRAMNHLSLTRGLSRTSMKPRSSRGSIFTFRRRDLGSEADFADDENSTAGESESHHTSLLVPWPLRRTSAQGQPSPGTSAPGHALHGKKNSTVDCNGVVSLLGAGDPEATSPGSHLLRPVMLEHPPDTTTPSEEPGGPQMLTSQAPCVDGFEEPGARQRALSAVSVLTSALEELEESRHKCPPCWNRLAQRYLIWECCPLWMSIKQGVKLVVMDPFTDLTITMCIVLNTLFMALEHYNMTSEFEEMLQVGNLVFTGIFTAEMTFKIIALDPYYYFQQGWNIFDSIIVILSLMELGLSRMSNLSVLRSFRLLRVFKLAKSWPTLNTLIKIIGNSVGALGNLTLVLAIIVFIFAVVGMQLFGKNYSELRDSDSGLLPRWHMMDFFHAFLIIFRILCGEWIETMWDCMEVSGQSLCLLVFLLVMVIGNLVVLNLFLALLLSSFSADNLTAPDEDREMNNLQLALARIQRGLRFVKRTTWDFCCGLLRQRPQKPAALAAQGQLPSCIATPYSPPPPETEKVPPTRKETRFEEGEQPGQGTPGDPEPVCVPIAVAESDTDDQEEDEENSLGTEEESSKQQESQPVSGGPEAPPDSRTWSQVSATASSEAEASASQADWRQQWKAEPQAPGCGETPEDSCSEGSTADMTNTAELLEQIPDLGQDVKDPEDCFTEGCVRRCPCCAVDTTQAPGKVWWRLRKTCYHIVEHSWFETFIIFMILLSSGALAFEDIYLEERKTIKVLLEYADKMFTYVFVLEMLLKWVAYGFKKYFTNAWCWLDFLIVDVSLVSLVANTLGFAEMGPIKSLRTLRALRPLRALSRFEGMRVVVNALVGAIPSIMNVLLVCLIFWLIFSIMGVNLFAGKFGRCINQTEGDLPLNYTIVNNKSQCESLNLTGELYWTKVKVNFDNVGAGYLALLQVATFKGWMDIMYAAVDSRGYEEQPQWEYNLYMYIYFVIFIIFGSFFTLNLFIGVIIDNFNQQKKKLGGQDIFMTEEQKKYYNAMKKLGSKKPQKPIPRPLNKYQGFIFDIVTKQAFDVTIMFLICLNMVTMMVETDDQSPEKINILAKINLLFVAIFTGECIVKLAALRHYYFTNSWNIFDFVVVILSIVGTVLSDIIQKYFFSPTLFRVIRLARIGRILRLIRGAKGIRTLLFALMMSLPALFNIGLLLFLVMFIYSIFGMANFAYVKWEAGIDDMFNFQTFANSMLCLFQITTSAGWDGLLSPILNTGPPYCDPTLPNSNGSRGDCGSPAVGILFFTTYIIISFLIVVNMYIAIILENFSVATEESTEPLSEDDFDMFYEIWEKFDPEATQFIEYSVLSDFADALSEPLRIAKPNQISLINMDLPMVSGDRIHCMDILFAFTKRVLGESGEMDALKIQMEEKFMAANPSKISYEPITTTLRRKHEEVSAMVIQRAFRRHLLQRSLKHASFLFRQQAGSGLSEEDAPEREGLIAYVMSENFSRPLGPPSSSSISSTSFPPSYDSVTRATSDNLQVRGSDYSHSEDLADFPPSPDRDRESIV
The test can be described thus: Late INa screening assay (PatchXpress whole cell patch clamp). As to conditions: 1 μM test compound; HEK293 hNav1.5; late INa generated with 10 μM Tefluthrin (some experiments 50 nM ATX II); read-out: Late INa % blk (1 μM test cmpd). The test is classed as cell-based. The protocol: The late sodium current (Late INa) and peak sodium current (Peak INa) assays are performed on an automated electrophysiology platform, PatchXpress 7000A (MDS Analytical Technologies, Sunnyvale, Calif.), which uses the whole cell patch clamp technique to measure currents through the cell membrane of up to 16 cells at a time. The assay uses an HEK293 (human embryonic kidney) cell line heterologously expressing the wild-type human cardiac sodium channel, hNav1.5, purchased from Millipore (Billerica, Mass.). No beta subunits were coexpressed with the Na channel alpha subunit. Cells are maintained with standard tissue culture procedures and stable channel expression is maintained with 400 μg/ml Geneticin in the culture medium. […] Experiments are carried out at 24-27° C.
For both the Late INa and Peak INa assays, series resistance compensation is set to 50% and whole-cell compensation is performed automatically. […] Currents through open sodium channels are automatically recorded and stored in the DataXpress2 database (MDS Analytical Technologies, Sunnyvale, Calif.). Analysis is performed using DataXpress2 analysis software and data are compiled in Excel.
Compound stocks are routinely made in glass vials to 10 mM in dimethyl sulfoxide (DMSO). In some cases, when compounds are not soluble in DMSO, they are made in 100% ethanol. Stocks are sonicated as necessary. The extracellular solution for screening Late INa is composed of: 140 mM NaCl, 4 mM KCl, 1.8 mM CaCl2, 0.75 mM MgCl2, and 5 mM HEPES with pH adjusted to 7.4 using NaOH. The extracellular solution for screening Peak INa is composed of: 20 mM NaCl, 120 mM N-methyl-D glucamine, 4 mM KCl, 1.8 mM CaCl2, 0.75 mM MgCl2, and 5 mM HEPES with pH adjusted to 7.4 using HCl. The intracellular solution used to perfuse the inside of the cells for both the Late INa and Peak INa assays contains: 120 mM CsF, 20 mM CsCl, 5 mM EGTA, 5 mM HEPES and pH adjusted to 7.4 with CsOH. […] The 0Na extracellular solution used at the end of each experiment for the Late INa and Peak INa assays to measure baseline current contains: 140 mM N-methyl-D-glucamine; 4 mM KCl; 1.8 mM CaCl2; 0.75 mM MgCl2; 5 mM HEPES and pH was adjusted to 7.4 with HCl.
For the Late INa assay, sodium channels are activated every 10 seconds (0.1 Hz) by depolarizing the cell membrane to −20 mV for 250 milliseconds (ms) from a holding potential of −120 mV. In response to a −20 mV voltage step, typical Nav1.5 sodium currents activate rapidly to a peak negative current and then inactivate nearly completely within […].
All compounds are tested to determine their activity in blocking the late sodium current. Late INa current is generated by adding 10 μM Tefluthrin (pyrethroid) to the extracellular solution while recording Na currents For some experiments, 50 nM ATX II (sea anemone toxin), another late Na activator, was used to generate the late component. […] After establishing the whole cell recording configuration, late INa activators are added to each well 4 times over a 16-17 minute period so that the late component of the Na current reaches a stable value. […] Measurements are made at the end of exposure to the third compound addition and values are normalized to the current level when all Na^+ is removed from the extracellular solution after two additions of ONa-ECF. Results are reported as percent block of late INa
As for `CS(=O)(=O)Nc1ccc(-c2cccc(Cl)c2)c(Cl)c1` [PT-053, N-(2,3′-dichlorobiphenyl-4-yl)methanesulfonamide], the inhibition at 1 µM came to 29.9%. Take `CS(=O)(=O)Nc1ccc(-c2ccc(Cl)c(C(F)(F)F)c2)c(Cl)c1` [PT-058, N-[2,4′-dichloro-3′-(trifluoromethyl)biphenyl-4-yl]methanesulfonamide]: the inhibition at 1 µM amounted to 42.5%.

Consider `CS(=O)(=O)N(CCN1CCCCC1)c1ccc(-c2ccc(Cl)c(F)c2)c(Cl)c1` [PT-062, N-(2,4′-dichloro-3′-fluorobiphenyl-4-yl)-N-[2-(piperidin-1-yl)ethyl]methanesulfonamide], for which the inhibition at 1 µM stood at 25.7%. The same measure, in the same setting: to `CS(=O)(=O)Nc1ccc(-c2cc(C(F)(F)F)cc(C(F)(F)F)c2)c(Cl)c1` [PT-065, N-[2-chloro-3′,5′-bis(trifluoromethyl)biphenyl-4-yl]methanesulfonamide] belongs 27.8%; to `CS(=O)(=O)Nc1ccc(-c2cccc(OC(F)(F)F)c2)c(F)c1` [PT-067, N-[2-fluoro-3′-(trifluoromethoxy)biphenyl-4-yl]methanesulfonamide], 13.8%.

The test is the same for the next values; noted with them: 10 μM test compound; HEK293 hNav1.5; late INa generated with 10 μM Tefluthrin (some experiments 50 nM ATX II); read-out: Late INa % blk (10 μM test cmpd).
Take `COC(=O)c1ccc(-c2ccc(NS(C)(=O)=O)cc2Cl)cc1` [PT-044, methyl 2′-chloro-4′-[(methylsulfonyl)amino]biphenyl-4-carboxylate]: the inhibition at 10 µM came out at 50.6%. As for `CS(=O)(=O)Nc1ccc(-c2ccc(F)cc2Cl)c(Cl)c1` [PT-045, N-(2,2′-dichloro-4′-fluorobiphenyl-4-yl)methanesulfonamide], the inhibition at 10 µM is 57.5%.

Turning to `O=S(=O)(Nc1ccc(-c2ccc(Oc3ccccc3)cc2)c(Cl)c1)C1CC1` [PT-048, N-(2-chloro-4′-phenoxybiphenyl-4-yl)cyclopropanesulfonamide], the inhibition at 10 µM was found to be 37.9%. For `COc1ccc(-c2ccc(NS(C)(=O)=O)cc2Cl)cc1` [PT-051, N-(2-chloro-4′-methoxybiphenyl-4-yl)methanesulfonamide], the inhibition at 10 µM was found to be 27%. Consider `CS(=O)(=O)Nc1ccc(-c2cccc(F)c2)c(Cl)c1` [PT-052, N-(2-chloro-3′-fluorobiphenyl-4-yl)methanesulfonamide], for which the inhibition at 10 µM was found to be 50.1%. On to `CS(=O)(=O)Nc1ccc(-c2cccc(Cl)c2)c(Cl)c1` [PT-053, N-(2,3′-dichlorobiphenyl-4-yl)methanesulfonamide], for which the inhibition at 10 µM worked out at 72.2%. `CS(=O)(=O)Nc1ccc(-c2cccc([N+](=O)[O-])c2)c(Cl)c1` [PT-054, N-(2-chloro-3′-nitrobiphenyl-4-yl)methanesulfonamide]: the inhibition at 10 µM came out at 41.3%. Take `Cc1cc(NS(C)(=O)=O)ccc1-c1ccc(F)cc1` [PT-056, N-(4′-fluoro-2-methylbiphenyl-4-yl)methanesulfonamide]: the inhibition at 10 µM was 40.8%.

On to `Cc1cc(NS(C)(=O)=O)ccc1-c1ccc(F)c(F)c1` [PT-057, N-(3′,4′-difluoro-2-methylbiphenyl-4-yl)methanesulfonamide], for which the inhibition at 10 µM was 35.9%. With `CS(=O)(=O)Nc1ccc(-c2ccc(Cl)c(C(F)(F)F)c2)c(Cl)c1` [PT-058, N-[2,4′-dichloro-3′-(trifluoromethyl)biphenyl-4-yl]methanesulfonamide], the inhibition at 10 µM is 78.5%. As to `CS(=O)(=O)Nc1ccc(-c2ccc(Cl)c(F)c2)c(F)c1` [PT-059, N-(4′-chloro-2,3′-difluorobiphenyl-4-yl)methanesulfonamide], the inhibition at 10 µM was found to be 41.3%. On the same count and under the same terms, as for `CS(=O)(=O)N(CCN1CCOCC1)c1ccc(-c2ccc(Cl)c(F)c2)c(Cl)c1` [PT-061, N-(2,4′-dichloro-3′-fluorobiphenyl-4-yl)-N-[2-(morpholin-4-yl)ethyl]methanesulfonamide], the figure is 20.6%. Regarding `CS(=O)(=O)N(CCN1CCCCC1)c1ccc(-c2ccc(Cl)c(F)c2)c(Cl)c1` [PT-062, N-(2,4′-dichloro-3′-fluorobiphenyl-4-yl)-N-[2-(piperidin-1-yl)ethyl]methanesulfonamide], the inhibition at 10 µM is 74.8%. On the same count and under the same terms, as for `CN1CCN(CCN(c2ccc(-c3ccc(Cl)c(F)c3)c(Cl)c2)S(C)(=O)=O)CC1` [PT-063, N-(2,4′-dichloro-3′-fluorobiphenyl-4-yl)-N-[2-(4-methylpiperazin-1-yl)ethyl]methanesulfonamide], the figure is 48.8%; as for `CS(=O)(=O)N(Cc1nn[nH]n1)c1ccc(-c2ccc(Cl)c(F)c2)c(Cl)c1` [PT-064, N-(2,4′-dichloro-3′-fluorobiphenyl-4-yl)-N-(2H-tetrazol-5-ylmethyl)methanesulfonamide], 30.5%; as for `CS(=O)(=O)Nc1ccc(-c2cc(C(F)(F)F)cc(C(F)(F)F)c2)c(Cl)c1` [PT-065, N-[2-chloro-3′,5′-bis(trifluoromethyl)biphenyl-4-yl]methanesulfonamide], 85.6%. On the same count and under the same terms, to `CS(=O)(=O)N(c1ccc(-c2ccc(Oc3ccccc3)cc2)cc1Cl)C1CCC[C@@H]1O` (stereo partly drawn) [PT-066, N-(3-chloro-4′-phenoxybiphenyl-4-yl)-N-[(2S)-2-hydroxycyclopentyl]methanesulfonamide] belongs 33.8%; to `CS(=O)(=O)Nc1ccc(-c2cccc(OC(F)(F)F)c2)c(F)c1` [PT-067, N-[2-fluoro-3′-(trifluoromethoxy)biphenyl-4-yl]methanesulfonamide], 70.7%.

Regarding `CS(=O)(=O)Nc1ccc(-c2cc(F)cc(F)c2)c(Cl)c1` [PT-068, N-(2-chloro-3′,5′-difluorobiphenyl-4-yl)methanesulfonamide], the inhibition at 10 µM turned out to be 42.2%.

With `CS(=O)(=O)Nc1ccc(-c2ccc(F)c(C(F)(F)F)c2)c(Cl)c1` [PT-069, N-[2-chloro-4′-fluoro-3′-(trifluoromethyl)biphenyl-4-yl]methanesulfonamide], the inhibition at 10 µM stood at 63%. On to `CS(=O)(=O)Nc1ccc(-c2cc(C(F)(F)F)ccc2F)c(Cl)c1` [PT-070, N-[2-chloro-2′-fluoro-5′-(trifluoromethyl)biphenyl-4-yl]methanesulfonamide], for which the inhibition at 10 µM amounted to 69.7%. For the molecule `CS(=O)(=O)Nc1ccc(-c2cc(F)c(F)c(F)c2)c(Cl)c1` [PT-071, N-(2-chloro-3′,4′,5′-trifluorobiphenyl-4-yl)methanesulfonamide], the inhibition at 10 µM is 59.5%.

Consider `O=S(=O)(Nc1ccc(-c2ccc(Oc3ccccc3)cc2)cc1)C1CC1` [PT-072, N-(4′-phenoxybiphenyl-4-yl)cyclopropanesulfonamide], for which the inhibition at 10 µM came out at 35.6%.

Turning to `Cc1cc(N(Cc2cccnc2)S(C)(=O)=O)ccc1-c1cccc(OC(F)(F)F)c1` [PT-073, N-[2-methyl-3′-(trifluoromethoxy)biphenyl-4-yl]-N-(pyridin-3-ylmethyl)methanesulfonamide], the inhibition at 10 µM was found to be 64.4%. Take `CS(=O)(=O)Nc1ccc(-c2ccc(Cl)c(F)c2)cc1OC(F)(F)F` [PT-074, N-[4′-chloro-3′-fluoro-3-(trifluoromethoxy)biphenyl-4-yl]methanesulfonamide]: the inhibition at 10 µM was 24.2%. Same read-out and setting: to `CS(=O)(=O)Nc1ccc(-c2ccc(C(F)(F)F)cc2)cc1OC(F)(F)F` [PT-075, N-[3-(trifluoromethoxy)-4′-(trifluoromethyl)biphenyl-4-yl]methanesulfonamide] belongs 24.4%. Turning to `CS(=O)(=O)Nc1ccc(-c2cccc(C(F)(F)F)c2)cc1OC(F)(F)F` [PT-076, N-[3-(trifluoromethoxy)-3′-(trifluoromethyl)biphenyl-4-yl]methanesulfonamide], the inhibition at 10 µM turned out to be 18.7%. With `COCCN(c1ccc(-c2ccc(Cl)c(F)c2)c(Cl)c1)S(C)(=O)=O` [PT-077, N-(2,4′-dichloro-3′-fluorobiphenyl-4-yl)-N-(2-methoxyethyl)methanesulfonamide], the inhibition at 10 µM is 27.2%. Same read-out and setting: as for `CS(=O)(=O)Nc1ccc(-c2ccc(OC(F)(F)F)cc2)c(F)c1` [PT-078, N-[2-fluoro-4′-(trifluoromethoxy)biphenyl-4-yl]methanesulfonamide], the figure is 49.1%; as for `CS(=O)(=O)Nc1ccc(-c2cccc(C(F)(F)F)c2)c(F)c1` [PT-079, N-[2-fluoro-3′-(trifluoromethyl)biphenyl-4-yl]methanesulfonamide], 53.2%. Regarding `CS(=O)(=O)Nc1ccc(-c2ccc(C(F)(F)F)cc2)c(F)c1` [PT-080, N-[2-fluoro-4′-(trifluoromethyl)biphenyl-4-yl]methanesulfonamide], the inhibition at 10 µM came to 66%.
